# Test results from patent US20040044006A1, “Methods of use of quinolone compounds against pneumococcal and haemophilus bacteria” (priority 1999, published 2004).
# Like-named read-outs stand apart in the source and are kept apart here.
# Experiments:
# [1] = system: quinolone resistant pneumococci; assay: Determination of efflux mechanism: MICs in the presence and absence of reserpine; type: cell-based, Streptococcus pneumoniae
# Description: MICs were determined in the presence and absence of 10 μg/ml of reserpine (Sigma Chemicals, St. Louis, Mo.) as known in the art.
# MICs were determined in the presence and absence of […] of reserpine (Sigma Chemicals, St. Louis, Mo., USA) as described previously (Brenwald, et al., Antimicrob. Agents Chemother. 42:2039-2035, 1998 and Davies, et al., Antimicrob. Agents Chemother. 43:1177-1182S, 1999).
# [2] = system: pneumococci (5 quinolone susceptible and 1 resistant strains); assay: Post-antibiotic effect (PAE) testing; type: cell-based, Streptococcus pneumoniae
# Description: The post-antibiotic effect (PAE) (Craig, et al., V. Lorian (ed.) Antibiotics in Laboratory Medicine, Williams and Wilkins, Baltimore, pages 296-399, 1996) was determined by the viable plate count method, using Mueller-Hinton broth (MHB) supplemented with 5% lysed horse blood when testing pneumococci. […] Additionally, the one quinolone resistant strain was exposed at quinolone concentrations 5×MIC. Tubes containing 5 ml broth with antibiotic were inoculated with approximately 5×10^6 cfu/ml. Growth controls with inoculum but no antibiotic were included with each experiment. Tubes were placed in a shaking water bath at 35° C. for 1 h. At the end of the exposure period, cultures were diluted 1:1000 to remove antibiotic.
# Viability counts were determined before exposure and immediately after dilution (0 h), and then every 2 h until tube turbidity reached a #1 McFarland standard. Inocula were prepared by suspending growth from an overnight blood agar plate in broth. The broth was incubated at 35° C. for 2-4 h in a shaking water bath until turbidity matched a #1 McFarland standard, and checked for viability by plate counts (Spangler, et al., Antimicrob. Agents Chemother. 41:2173-9176, 1997; Spangler, et al., Antimicrob. Agents Chemother. 42:1253-1255, 1998).
# The PAE was defined as PAE=T-C; T=time required for viability counts of an antibiotic-exposed culture to increase by 1 log10 above counts immediately after dilution; C=corresponding time for growth control. For each experiment, viability counts (log10 cfu/ml) were plotted against time, and results expressed as the mean of two separate assays±S D (Craig, et al., V. Lorian (ed), Antibiotics in Laboratory Medicine, Williams and Wilkins, Baltimore, pages 296-329, 1996).
# [3] = system: quinolone-resistant Haemophilus influenzae strains; assay: Microdilution MIC determination in HTM for quinolone-resistant Haemophilus influenzae strains; type: cell-based
# Description: Inocula were prepared from chocolate agar plates incubated for a full 24 hours by the direct colony suspension method as follows: In a tube of Mueller-Hinton broth (Difco), an organism suspension was made to a density of a 0.5 McFarland standard (1×10^8 CFU/ml). The latter inoculum was diluted in sterile saline such that final organisms suspensions in trays yielded colony counts of 3-8×10^5 CFU/ml. Frozen microdilution trays were obtained from MicroMedia Systems, Inc. (Cleveland, Ohio, USA). Each tray contained all antimicrobials prepared in freshly made HTM. Wells were inoculated with 100 μl suspensions and incubated in ambient air at 35° C. for 20-24 hours. The lowest drug concentration showing no growth was read as the MIC. Standard quality control strains, including H. influenzae ATCC 49766, H. influenzae ATCC 49247, Staphylococcus aureus ATCC 29213 and Escherichia coli ATCC 25922 were included with each run.
# [4] = system: quinolone susceptible pneumococci (ciprofloxacin MICs ≦4.0 μg/ml); assay: Agar dilution MICs of 207 quinolone susceptible pneumococcal strains; type: cell-based, Streptococcus pneumoniae; conditions: Streptococcus pneumoniae; for MIC90: read-out: MIC90
# Description: All susceptible, and some intermediate and resistant strains, were recent U.S. isolates. The remainder of intermediate and resistant strains were isolated in South Africa, Spain, France, Central and Eastern Europe, and Korea. […] Additionally these strains were tested for mutations in parC, gyrA, parE, and gyrB (Pan, et al., Antimicrob. Agents Chemother. 40:2321-2326, 1996) and for efflux mechanism (Brenwald, et al., Antimicrob. Agents Chemother. 42:2032-2035, 1998). For time-kill studies, 4 penicillin susceptible, 4 intermediate and 4 resistant strains (2 quinolone resistant) were tested, while for PAE studies 5 quinolone susceptible and 1 resistant strains were studied.
# (§1) Agar dilution methodology was performed on 234 strains as described previously (M. R. Jacobs, Clin. Infect. Dis. 15:119-127, 1992; Jacobs, et al., Rev. Med. Microbiol. 6:77-93, 1995), using Mueller-Hinton agar (BBL Microbiology Systems, Cockeysville, Md.) supplemented with 5% sheep blood. Broth MICs for 12 strains tested by time-kill and 6 tested by PAE were performed according to NCCLS recommendations (Methods for Dilution Antimicrobial Susceptibility Tests for Bacteria that Grow Aerobically, 3rd Edition, NCCLS, Villanova, Pa.) using cation-adjusted Mueller-Hinton broth with 5% lysed defibrinated horse blood. Standard quality control strains, including Streptococcus pneumoniae ATCC 49619, were included in each run of agar and broth dilution MICs.
# pneumococcal strains = assay: Microbroth dilution MICs of strains tested by time-kill and PAE; type: cell-based; conditions: Streptococcus pneumoniae
# Description: as §1
# [5] = 9 quinolone-resistant Haemophilus influenzae strains
# [6] = agar dilution, Penicillin I strains
# [7] = agar dilution, Penicillin R strains
# [8] = agar dilution, Penicillin S strains
# [9] = agar dilution, all 207 strains (64 penicillin susceptible, 68 intermediate, 75 resistant)
smiles,measurement,setting,value
"CO/N=C1\CN(c2nc3c(cc2F)c(=O)c(C(=O)O)cn3C2CC2)CC1CN (racemic) [Gemifloxacin, (R,S)-7-(3-aminomethyl-4-methoxyiminopyrrolidin-1-yl)-1-cyclopropyl-6-fluoro-4-oxo-1,4-dihydro-1,8-naphthyridine-3-carboxylic acid]","lower MICs in the presence of reserpine, fold range over affected strains","[1]; 28 quinolone resistant strains, 10 μg/ml reserpine",2-4 ×
same,number of strains with lower MICs in the presence of reserpine,"[1]; of 28 quinolone resistant strains, 10 μg/ml reserpine",13 strains
same,Number of dilutions decrease after incubation with reserpine,[1]; strain 1,2X^a
same,lower MIC in the presence of reserpine (efflux mechanism),"[1]; strain 1, 10 μg/ml reserpine",2X^a
same,Number of dilutions decrease after incubation with reserpine,[1]; strain 5,2X
same,lower MIC in the presence of reserpine (efflux mechanism),"[1]; strain 5, 10 μg/ml reserpine",2X
same,Number of dilutions decrease after incubation with reserpine,[1]; strain 7,2X
same,lower MIC in the presence of reserpine (efflux mechanism),"[1]; strain 7, 10 μg/ml reserpine",2X
same,Number of dilutions decrease after incubation with reserpine,[1]; strain 8,2X
same,lower MIC in the presence of reserpine (efflux mechanism),"[1]; strain 8, 10 μg/ml reserpine",2X
same,Number of dilutions decrease after incubation with reserpine,[1]; strain 9,4X
same,lower MIC in the presence of reserpine (efflux mechanism),"[1]; strain 9, 10 μg/ml reserpine",4X
same,Number of dilutions decrease after incubation with reserpine,[1]; strain 11,2X
same,lower MIC in the presence of reserpine (efflux mechanism),"[1]; strain 11, 10 μg/ml reserpine",2X
same,Number of dilutions decrease after incubation with reserpine,[1]; strain 12,2X
same,lower MIC in the presence of reserpine (efflux mechanism),"[1]; strain 12, 10 μg/ml reserpine",2X
same,Number of dilutions decrease after incubation with reserpine,[1]; strain 16,2X
same,lower MIC in the presence of reserpine (efflux mechanism),"[1]; strain 16, 10 μg/ml reserpine",2X
same,Number of dilutions decrease after incubation with reserpine,[1]; strain 17,2X
same,lower MIC in the presence of reserpine (efflux mechanism),"[1]; strain 17, 10 μg/ml reserpine",2X
same,Number of dilutions decrease after incubation with reserpine,[1]; strain 23,2X
same,lower MIC in the presence of reserpine (efflux mechanism),"[1]; strain 23, 10 μg/ml reserpine",2X
same,Number of dilutions decrease after incubation with reserpine,[1]; strain 25,2x X
same,lower MIC in the presence of reserpine (efflux mechanism),"[1]; strain 25, 10 μg/ml reserpine",2x X
same,Number of dilutions decrease after incubation with reserpine,[1]; strain 26,2x X
same,lower MIC in the presence of reserpine (efflux mechanism),"[1]; strain 26, 10 μg/ml reserpine",2x X
same,Number of dilutions decrease after incubation with reserpine,[1]; strain 28,4x X
same,lower MIC in the presence of reserpine (efflux mechanism),"[1]; strain 28, 10 μg/ml reserpine",4x X
same,PAE,"[2]; 5×MIC, quinolone resistant strain",0.9 h
same,PAE,"[2]; 10×MIC for 1 h, range over 5 quinolone susceptible strains",0.4 to 1.6 h
same,MIC50,[3]; [5],0.25 µg/mL
same,MIC Range,[3]; [5],0.03 to 1.0 µg/mL
same,MIC Range,"[3]; 9 quinolone-resistant Haemophilus influenzae strains, listed as gemifloxacin",≤ 1.0 µg/mL
same,MIC,"[3]; 9 quinolone-resistant Haemophilus influenzae strains, read-out: highest MIC",1 µg/mL
same,MIC,"[3]; Haemophilus influenzae, read-out: MICs, strain 1, GyrA S84→L, ParC S133→A N138→S, GyrB None, ParE None",0.03 µg/mL
same,MIC,"[3]; Haemophilus influenzae, read-out: MICs, strain 2, GyrA S84→F, ParC None, GyrB None, ParE S458→L",0.125 µg/mL
same,MIC,"[3]; Haemophilus influenzae, read-out: MICs, strain 3, GyrA S84→L, ParC S84→I, GyrB None, ParE None",0.125 µg/mL
same,MIC,"[3]; Haemophilus influenzae, read-out: MICs, strain 4, GyrA S84→F D88→N, ParC D83→N, GyrB None, ParE T459→S",0.25 µg/mL
same,MIC,"[3]; Haemophilus influenzae, read-out: MICs, strain 5, GyrA S84→Y, ParC E88→K, GyrB Q468→R, ParE G405→S",0.25 µg/mL
same,MIC,"[3]; Haemophilus influenzae, read-out: MICs, strain 6, GyrA S84→L A117→E, ParC S84→R, GyrB None, ParE D420→N",0.5 µg/mL
same,MIC,"[3]; Haemophilus influenzae, read-out: MICs, strain 7, GyrA S84→L A117→E, ParC S84→R, GyrB None, ParE D420→N",0.5 µg/mL
same,MIC,"[3]; Haemophilus influenzae, read-out: MICs, strain 8, GyrA S84→L A117→E, ParC S84→R, GyrB None, ParE D420→N",0.5 µg/mL
same,MIC50,[4]; [6],0.03 µg/mL
same,MIC90,[4]; [6],0.06 µg/mL
same,MIC,"[4]; agar dilution, Penicillin I strains, read-out: MIC range",0.008 to 0.25 µg/mL
same,MIC50,[4]; [7],0.03 µg/mL
same,MIC90,[4]; [7],0.06 µg/mL
same,MIC50,[4]; [8],0.03 µg/mL
same,MIC90,[4]; [8],0.03 µg/mL
same,MIC50,[4]; [9],0.03 µg/mL
same,MIC90,[4]; [9],0.06 µg/mL
same,MIC,"[4]; read-out: MIC range, agar dilution, Penicillin R strains",0.004 to 0.125 µg/mL
same,MIC,"[4]; read-out: MIC range, agar dilution, Penicillin S strains",0.008 to 0.125 µg/mL
same,MIC,"pneumococcal strains; broth MIC, quinolone resistant PAE strain, read-out: MIC against the quinolone resistant strain tested for PAE",0.25 µg/mL
same,MIC,"pneumococcal strains; strain 1 (S) penicillin susceptible, read-out: Microdilution MIC",0.016 µg/mL
same,MIC,"pneumococcal strains; strain 2 (S) penicillin susceptible, read-out: Microdilution MIC",0.016 µg/mL
same,MIC,"pneumococcal strains; strain 3 (S) penicillin susceptible, quinolone-resistant, read-out: Microdilution MIC",0.5 µg/mL
same,MIC,"pneumococcal strains; strain 4 (S) penicillin susceptible, quinolone-resistant, read-out: Microdilution MIC",0.25 µg/mL
same,MIC,"pneumococcal strains; strain 5 (I) penicillin intermediate, read-out: Microdilution MIC",0.03 µg/mL
same,MIC,"pneumococcal strains; strain 6 (I) penicillin intermediate, read-out: Microdilution MIC",0.016 µg/mL
same,MIC,"pneumococcal strains; strain 7 (I) penicillin intermediate, read-out: Microdilution MIC",0.016 µg/mL
same,MIC,"pneumococcal strains; strain 8 (I) penicillin intermediate, read-out: Microdilution MIC",0.016 µg/mL
same,MIC,"pneumococcal strains; strain 9 (R) penicillin resistant, read-out: Microdilution MIC",0.03 µg/mL
same,MIC,"pneumococcal strains; strain 10 (I), read-out: Microdilution MIC",0.016 µg/mL
same,MIC,"pneumococcal strains; strain 11 (R) penicillin resistant, read-out: Microdilution MIC",0.016 µg/mL
same,MIC,"pneumococcal strains; strain 12 (R) penicillin resistant, read-out: Microdilution MIC",0.03 µg/mL
